Laboratory results: ChEMBL document CHEMBL1140113, “Structural requirements for drug inhibition of the liver specific human organic cation transport protein 1” (J Med Chem, 2008)

T1: OCT1 (SLC22A1) (Homo sapiens, UniProt O15245)
T1 sequence (O15245 whole entry): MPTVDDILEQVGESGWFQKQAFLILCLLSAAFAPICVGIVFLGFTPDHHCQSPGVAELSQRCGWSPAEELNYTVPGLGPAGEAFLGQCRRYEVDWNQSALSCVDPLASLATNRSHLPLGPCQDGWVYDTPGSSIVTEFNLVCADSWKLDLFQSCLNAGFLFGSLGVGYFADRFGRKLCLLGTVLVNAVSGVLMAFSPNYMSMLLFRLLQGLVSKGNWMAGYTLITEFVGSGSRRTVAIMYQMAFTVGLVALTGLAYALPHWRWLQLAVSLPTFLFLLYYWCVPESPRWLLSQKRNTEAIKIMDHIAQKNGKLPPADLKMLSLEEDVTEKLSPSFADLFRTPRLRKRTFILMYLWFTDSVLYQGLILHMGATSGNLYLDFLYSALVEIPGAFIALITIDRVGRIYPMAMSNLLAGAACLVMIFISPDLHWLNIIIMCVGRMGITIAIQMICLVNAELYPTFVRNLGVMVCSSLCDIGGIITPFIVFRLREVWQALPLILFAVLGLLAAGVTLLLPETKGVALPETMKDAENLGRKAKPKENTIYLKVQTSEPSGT

T2: Solute carrier family 22 member 1 (Homo sapiens, UniProt O15245)
T2 sequence (O15245 whole entry): T1 sequence (O15245 whole entry)

B1: Solute carrier family 22 member 1 (Homo sapiens) (protein)
chain: T1 sequence (O15245 whole entry)

How the values were obtained:
OCT1 (SLC22A1) [1] = target: T1, OCT1 (SLC22A1); assay: in vitro
[2] = target: T2, Solute carrier family 22 member 1; format: cell-based, HEK293
OCT1 (SLC22A1) [3] = target: T1, OCT1 (SLC22A1); assay: Inhibition of 4-(4-(dimethylamino)styryl)-N-methylpyridinium uptake at human OCT1 expressed in HEK293 cells at 10 uM by confocal microscopy; format: cell-based; conditions: HEK293 cells that express human OCT1, probe 4-(4-(dimethylamino)styryl)-N-methylpyridinium
not read = substrate: CC[N+](CC)(CC)CC; assay: not read
[4] = HEK293 cells that express human OCT1, probe 4-(4-(dimethylamino)styryl)-N-methylpyridinium

Row | Molecule | inhibition at 100 µM (OCT1 (SLC22A1) [1]; [4]) | IC50 [2] | inhibition at 100 µM (OCT1 (SLC22A1) [1]; hek293) | inhibition at 10 µM (OCT1 (SLC22A1) [3]) | Km (not read)
1 | CN1CCc2cccc3c2[C@H]1Cc1ccc(O)c(O)c1-3 [APOMORPHINE] | 69% | 20.8 µM |  |  | 
2 | CN1CCN(CCCN2c3ccccc3Sc3ccc(Cl)cc32)CC1 [PROCHLORPERAZINE] | 66.5% | 49.6 µM |  |  | 
3 | COc1ccc([C@@H]2Sc3ccccc3N(CCN(C)C)C(=O)[C@@H]2OC(C)=O)cc1 [DILTIAZEM] | 65.5% | 12.4 µM |  |  | 
4 | O=C(CCCN1CCC(O)(c2ccc(Cl)cc2)CC1)c1ccc(F)cc1 [HALOPERIDOL] | 67.1% | 142 µM |  |  | 
5 | C[C@]12CC[C@H]3[C@@H](CCC4=CC(=O)CC[C@@H]43)[C@@H]1CC[C@@H]2O [NANDROLONE] |  | 35.1 µM | 79.3% |  | 
6 | COc1cc2nc(N3CCN(C(=O)C4CCCO4)CC3)nc(N)c2cc1OC (stereo not given) [TERAZOSIN] | 77% | 23.7 µM |  |  | 
7 | Cc1nccn1CC1CCc2c(c3ccccc3n2C)C1=O (stereo not given) [ONDANSETRON] |  | 20.4 µM | 63.8% |  | 
8 | C=CCOc1ccccc1OCC(O)CNC(C)C (stereo not given) [OXPRENOLOL] |  | 28.6 µM | 61.5% |  | 
9 | CN(C)CCC=C1c2ccccc2CCc2ccccc21 [AMITRIPTYLINE] | 78.5% | 16.9 µM |  |  | 
10 | CN(C)CCCN1c2ccccc2Sc2ccccc21 [PROMAZINE] | 79.2% | 17.2 µM |  |  | 
11 | CC(COc1ccccc1)N(CCCl)Cc1ccccc1 (stereo not given) [PHENOXYBENZAMINE] | 56.7% | 15.1 µM |  |  | 
12 | CN1CCC[C@@H]1CCO[C@](C)(c1ccccc1)c1ccc(Cl)cc1 [CLEMASTINE] | 78.8% | 4.9 µM |  |  | 
13 | CN(C)C(=O)C(CCN1CCC(O)(c2ccc(Cl)cc2)CC1)(c1ccccc1)c1ccccc1 [LOPERAMIDE] |  | 23.7 µM | 73.4% |  | 
14 | COc1cc2nc(N3CCN(C(=O)c4ccco4)CC3)nc(N)c2cc1OC [PRAZOSIN] |  | 9.9 µM | 55.6% | 55.6% | 
15 | CCN(CC)CCNC(=O)c1cc(Cl)c(N)cc1OC [METOCLOPRAMIDE] | 52.3% | 94.8 µM |  |  | 
16 | COc1cc(NS(C)(=O)=O)ccc1Nc1c2ccccc2nc2ccccc12 [AMSACRINE] | 68.4% | 5 µM |  |  | 
17 | CC12CC3CC(C)(C1)CC(N)(C3)C2 [MEMANTINE] | 58.6% | 27.2 µM |  |  | 
18 | CC(C)NCC(O)COc1cccc2ccccc12 (stereo not given) [PROPRANOLOL] | 55.4% | 63.2 µM |  |  | 
19 | C[N+]1(C)CCCC(OC(=O)C(O)(c2ccccc2)c2ccccc2)C1 (stereo not given) [MEPENZOLATE BROMIDE] | 59.5% | 64.9 µM |  |  | 
20 | CN1CC[C@]23c4c5ccc(O)c4O[C@H]2[C@@H](O)C=C[C@H]3[C@H]1C5 [MORPHINE] | 67.9% | 28 µM |  |  | 
21 | CN(C)CCCN1c2ccccc2CCc2ccc(Cl)cc21 [CLOMIPRAMINE] | 85.3% | 19.3 µM |  |  | 
22 | OCCN1CCN(CCCN2c3ccccc3Sc3ccc(C(F)(F)F)cc32)CC1 [FLUPHENAZINE] | 61.9% | 110 µM |  |  | 

Row | Molecule | inhibition at 100 µM (OCT1 (SLC22A1) [1]; [4]) | IC50 [2] | inhibition at 100 µM (OCT1 (SLC22A1) [1]; hek293) | inhibition at 10 µM (OCT1 (SLC22A1) [3]) | Km (not read)
23 | CC(C)(Cc1c[nH]c2ccccc12)NCC(O)COc1ccccc1C#N (stereo not given) [BUCINDOLOL] | 84.6% | 27.2 µM |  |  | 
24 | CC(CN1c2ccccc2Sc2ccccc21)N(C)C (stereo not given) [PROMETHAZINE] | 71.1% | 35.1 µM |  |  | 
25 | COc1cccc(C2(O)CCCCC2CN(C)C)c1 (stereo not given) [TRAMADOL] | 60.2% | 52.5 µM |  |  | 
26 | Clc1cccc(Cl)c1N=C1NCCN1 [CLONIDINE] |  | 22.6 µM | 65.4% |  | 
27 | CN(C)CCCN1c2ccccc2Sc2ccc(Cl)cc21 [CHLORPROMAZINE] | 85.1% | 27 µM |  |  | 
28 | N=C(N)NC(=O)c1nc(Cl)c(N)nc1N [AMILORIDE] | 68.7% | 57 µM |  |  | 
29 | CCOc1cc(CC(=O)N[C@@H](CC(C)C)c2ccccc2N2CCCCC2)ccc1C(=O)O [REPAGLINIDE] | 76.4% | 9.2 µM |  |  | 
30 | COc1ccc(CCNC[C@H](O)c2ccc(O)cc2)cc1OC [DENOPAMINE] |  | 46.9 µM | 51.5% |  | 
31 | CN(C)CCCN1c2ccccc2CCc2ccccc21 [IMIPRAMINE] |  | 17.1 µM | 82.8% |  | 
32 | CN(C)CC/C=C1/c2ccccc2Sc2ccc(Cl)cc21 [CHLORPROTHIXENE] | 65.4% | 77.8 µM |  |  | 
33 | CC(CN(C)C)CN1c2ccccc2CCc2ccccc21 (stereo not given) [TRIMIPRAMINE] | 77.2% | 27.7 µM |  |  | 
34 | CCCNCC(O)COc1ccccc1C(=O)CCc1ccccc1 (stereo not given) [PROPAFENONE] | 83.8% | 11.1 µM |  |  | 
35 | CNCCCN1c2ccccc2CCc2ccccc21 [DESIPRAMINE] |  | 56.8 µM | 84.3% |  | 
36 | COc1ccc2c3c1O[C@H]1[C@@H](O)C=C[C@H]4[C@@H](C2)N(C)CC[C@@]341 [CODEINE] | 39.1% |  |  |  | 
37 | CC[C@@H]1C(=O)OC[C@@H]1Cc1cncn1C [PILOCARPINE] | 17% |  |  |  | 
38 | CN(C)CCCC1(c2ccc(F)cc2)OCc2cc(C#N)ccc21 (stereo not given) [CITALOPRAM] |  | 18.8 µM | 52% |  | 
39 | CN1[C@@H]2C[C@@H](OC(=O)[C@H](CO)c3ccccc3)C[C@H]1[C@@H]1O[C@@H]12 [SCOPOLAMINE] | 43.9% |  |  |  | 
40 | CC(C)OC(=O)C(C)(C)Oc1ccc(C(=O)c2ccc(Cl)cc2)cc1 [FENOFIBRATE] | 0.2% |  |  |  | 
41 | NCCc1c[nH]cn1 [HISTAMINE] |  |  | 4.1% |  | 
42 | C=C[C@H]1C[N@@]2CC[C@H]1C[C@@H]2[C@@H](O)c1ccnc2ccc(OC)cc12 [QUINIDINE] | 62.9% |  |  |  | 
43 | B1 |  |  |  |  | 2.32 µM
